Laboratory results from ChEMBL document CHEMBL5370659 (J Med Chem, 2023).
Active and inactive are the calls of the source. The rule behind the calls is not given here.

What was measured:
[1] = Plasma concentration in Sprague-Dawley rat at 50 mg/kg, po measured at 2 hrs by LC-MS/MS analysis; format: ADME, organism-based
[2] = MRT (0 to last) in Sprague-Dawley rat at 50 mg/kg, po measured upto 1440 mins by LC-MS/MS analysis; format: ADME, organism-based; conditions: in vivo
[3] = AUCExtra in CD-1 (ICR) mouse at 50 mg/kg, po measured upto 1440 mins by LC-MS/MS analysis; format: ADME, organism-based; conditions: in vivo, 24 h
[4] = Brain homogenate binding in rat; format: ADME, tissue-based
[5] = Plasma protein binding in human; format: ADME, cell-free; conditions: read-out: PPB (converted)
Cytochrome P450 3A4 = Cytochrome P450 3A4 (Homo sapiens, UniProt P08684); assay: Inhibition of CYP3A4 in human liver microsome using midazolam as substrate measured upto 50 uM incubated for 10 mins followed by NADPH addition incubated for 10 mins by LC/MS/MS analysis; format: ADME; conditions: microsomes, 20 min
[6] = AUMCExtra in Sprague-Dawley rat at 10 mg/kg, iv measured upto 1440 mins by LC-MS/MS analysis; format: ADME, organism-based; conditions: in vivo, 24 h
[7] = Toxicity in C57BL/6N mouse assessed as body weight change at 1.5 to 15 mg/kg, po bid treated for 7 days; format: organism-based; conditions: in vivo, 168 h, dose 1.5-15 mg/kg, time 7 day
[8] = Metabolic stability in rat hepatocytes assessed as half life; format: ADME, cell-based, Hepatocyte
[9] = biological target: T1, Tryptophan 5-hydroxylase 1 (Homo sapiens, UniProt P17752); assay: Inhibition of recombinant MBP-tagged full length human THP1 using L-Trp as substrate assessed as formation of 5-HTP by measuring fluorescent property
T1 sequence (P17752 whole entry): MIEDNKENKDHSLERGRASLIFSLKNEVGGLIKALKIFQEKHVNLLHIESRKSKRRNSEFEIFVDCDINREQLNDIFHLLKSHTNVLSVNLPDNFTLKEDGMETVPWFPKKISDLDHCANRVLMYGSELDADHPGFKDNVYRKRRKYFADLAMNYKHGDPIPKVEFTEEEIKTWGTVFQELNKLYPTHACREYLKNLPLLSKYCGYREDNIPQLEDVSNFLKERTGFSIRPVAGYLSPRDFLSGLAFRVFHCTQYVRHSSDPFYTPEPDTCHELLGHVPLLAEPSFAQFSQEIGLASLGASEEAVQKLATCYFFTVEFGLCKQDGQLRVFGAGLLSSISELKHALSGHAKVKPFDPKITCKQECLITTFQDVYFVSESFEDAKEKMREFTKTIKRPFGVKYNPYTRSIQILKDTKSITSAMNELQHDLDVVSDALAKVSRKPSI

[10] = Volume of distribution at steady state in Sprague-Dawley rat at 10 mg/kg, iv measured upto 1440 mins by LC-MS/MS analysis; format: ADME, organism-based; conditions: in vivo, read-out: Vdss
[11] = Drug uptake in CD-1 (ICR) mouse lung at 50 mg/kg measured 2 hrs by LC-MS/MS analysis; format: ADME, organism-based; conditions: read-out: Drug uptake
[12] = Plasma concentration in Sprague-Dawley rat at 20 mg/kg, po measured at 0.5 hrs by LC-MS/MS analysis; format: ADME, organism-based
[13] = Half life in Sprague-Dawley rat at 20 mg/kg, po measured upto 1440 mins by LC-MS/MS analysis; format: ADME, organism-based; conditions: in vivo
[14] = MRT (0 to infinitive) in Sprague-Dawley rat at 10 mg/kg, iv measured upto 1440 mins by LC-MS/MS analysis; format: ADME, organism-based; conditions: in vivo
[15] = biological target: Voltage-gated inwardly rectifying potassium channel KCNH2 (Homo sapiens, UniProt Q12809); assay: Inhibition of hERG channel expressed in CHO cells by whole-cell patch clamp assay; format: toxicity, cell-based
[16] = Tmax in CD-1 (ICR) mouse at 50 mg/kg, po measured upto 1440 mins by LC-MS/MS analysis; format: ADME, organism-based; conditions: in vivo
[17] = Clearance in Sprague-Dawley rat at 10 mg/kg, iv measured upto 1440 mins by LC-MS/MS analysis; format: ADME, organism-based; conditions: in vivo
Mus musculus = assay: Effect on total duration of immobility in C57BL/6N mouse at 50 mg/kg, po treated for 14 days by tail suspension test; format: functional, organism-based; conditions: time 14.0 day
[18] = Plasma concentration in Sprague-Dawley rat at 20 mg/kg, po measured at 2 hrs by LC-MS/MS analysis; format: ADME, organism-based
[19] = Toxicity in C57BL/6N mouse assessed as behavioral changes at 1.5 to 50 mg/kg, po bid treated for 6 to 7 days; format: organism-based; conditions: in vivo, dose lower 1.5 mg/kg, time lower 6 day, dose upper 50 mg/kg, time upper 7 day
[20] = AUC (0 to infinitive) in Sprague-Dawley rat at 20 mg/kg, po measured upto 1440 mins by LC-MS/MS analysis; format: ADME, organism-based; set-up: dose 20 mg/kg, time < 1440 min, route po; conditions: in vivo
[21] = Cmax in CD-1 (ICR) mouse at 50 mg/kg, po measured upto 1440 mins by LC-MS/MS analysis; format: ADME, organism-based; set-up: dose 50 mg/kg, time < 1440 min, route po; conditions: in vivo
[22] = AUMCExtra in Sprague-Dawley rat at 50 mg/kg, po measured upto 1440 mins by LC-MS/MS analysis; format: ADME, organism-based; conditions: in vivo, 24 h
[23] = biological target: ATP-dependent translocase ABCB1 (Homo sapiens, UniProt P08183); assay: Inhibition of P-gp in human Caco-2 cells seeded in polyethylene membranes assessed as permeation in presence or absence of digoxin measured for 2 hrs by LC-MS/MS analysis based transporter assay; format: cell-based
[24] = Initial drug concentration in Sprague-Dawley rat at 10 mg/kg, iv measured upto 1440 mins by LC-MS/MS analysis; format: ADME, organism-based; conditions: in vivo
[25] = Drug uptake in Sprague-Dawley rat lung at 50 mg/kg, po measured at 2 hrs by LC-MS/MS analysis; format: ADME, organism-based; conditions: read-out: Drug uptake
[26] = Metabolic stability in human hepatocytes assessed as intrinsic clearance; format: ADME, cell-based, Hepatocyte; conditions: read-out: CLH
[27] = Cytotoxicity against human serotonergic BON cells assessed as cell viability at 300 uM incubated for 72 hrs by WST-1 assay; format: toxicity, cell-based

Chain of ATP-dependent translocase ABCB1 (P08183 whole entry): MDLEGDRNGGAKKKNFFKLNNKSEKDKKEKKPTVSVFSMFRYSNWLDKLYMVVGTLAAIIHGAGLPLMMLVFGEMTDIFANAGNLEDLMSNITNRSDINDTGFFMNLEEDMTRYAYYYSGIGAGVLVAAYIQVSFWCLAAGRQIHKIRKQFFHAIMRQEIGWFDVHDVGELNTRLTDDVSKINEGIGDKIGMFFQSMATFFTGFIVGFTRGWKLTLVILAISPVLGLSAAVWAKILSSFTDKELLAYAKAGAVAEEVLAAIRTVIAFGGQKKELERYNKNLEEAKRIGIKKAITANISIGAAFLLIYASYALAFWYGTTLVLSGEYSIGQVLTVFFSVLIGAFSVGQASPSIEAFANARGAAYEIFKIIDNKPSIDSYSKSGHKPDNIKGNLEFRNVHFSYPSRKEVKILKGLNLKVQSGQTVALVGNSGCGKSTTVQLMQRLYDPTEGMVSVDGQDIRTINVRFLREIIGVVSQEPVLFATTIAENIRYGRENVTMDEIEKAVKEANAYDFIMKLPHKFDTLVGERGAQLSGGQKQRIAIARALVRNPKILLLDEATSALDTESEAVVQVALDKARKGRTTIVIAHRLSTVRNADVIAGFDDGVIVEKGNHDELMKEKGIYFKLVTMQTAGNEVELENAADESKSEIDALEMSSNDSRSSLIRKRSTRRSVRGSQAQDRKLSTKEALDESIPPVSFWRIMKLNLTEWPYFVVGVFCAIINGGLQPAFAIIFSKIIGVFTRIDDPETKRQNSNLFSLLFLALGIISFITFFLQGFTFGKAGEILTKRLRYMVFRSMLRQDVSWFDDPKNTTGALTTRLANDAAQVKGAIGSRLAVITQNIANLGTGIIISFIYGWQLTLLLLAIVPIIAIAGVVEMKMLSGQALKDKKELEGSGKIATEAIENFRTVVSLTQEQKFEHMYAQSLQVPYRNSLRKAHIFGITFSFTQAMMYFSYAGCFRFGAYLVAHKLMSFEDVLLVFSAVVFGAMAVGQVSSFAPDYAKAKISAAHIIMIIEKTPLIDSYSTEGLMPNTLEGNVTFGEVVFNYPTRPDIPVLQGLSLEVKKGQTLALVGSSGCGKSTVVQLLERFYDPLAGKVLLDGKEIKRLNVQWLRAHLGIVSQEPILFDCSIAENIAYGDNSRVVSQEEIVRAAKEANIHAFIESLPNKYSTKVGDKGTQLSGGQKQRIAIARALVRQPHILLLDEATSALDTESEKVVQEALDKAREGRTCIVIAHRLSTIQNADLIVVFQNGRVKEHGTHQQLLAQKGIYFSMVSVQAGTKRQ
Chain of Cytochrome P450 3A4 (P08684 whole entry): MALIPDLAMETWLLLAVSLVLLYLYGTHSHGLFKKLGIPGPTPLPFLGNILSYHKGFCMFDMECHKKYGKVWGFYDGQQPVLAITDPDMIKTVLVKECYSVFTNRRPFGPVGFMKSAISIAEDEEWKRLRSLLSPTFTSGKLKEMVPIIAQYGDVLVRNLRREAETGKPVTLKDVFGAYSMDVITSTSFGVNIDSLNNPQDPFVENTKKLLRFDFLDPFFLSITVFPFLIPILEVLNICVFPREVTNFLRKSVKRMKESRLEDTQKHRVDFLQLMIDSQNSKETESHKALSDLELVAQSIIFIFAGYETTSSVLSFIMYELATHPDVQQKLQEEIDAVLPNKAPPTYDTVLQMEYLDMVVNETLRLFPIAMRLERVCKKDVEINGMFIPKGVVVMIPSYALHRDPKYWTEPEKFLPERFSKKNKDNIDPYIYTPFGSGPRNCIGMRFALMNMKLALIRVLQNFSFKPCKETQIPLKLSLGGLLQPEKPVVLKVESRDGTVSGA
Chain of Voltage-gated inwardly rectifying potassium channel KCNH2 (Q12809 whole entry): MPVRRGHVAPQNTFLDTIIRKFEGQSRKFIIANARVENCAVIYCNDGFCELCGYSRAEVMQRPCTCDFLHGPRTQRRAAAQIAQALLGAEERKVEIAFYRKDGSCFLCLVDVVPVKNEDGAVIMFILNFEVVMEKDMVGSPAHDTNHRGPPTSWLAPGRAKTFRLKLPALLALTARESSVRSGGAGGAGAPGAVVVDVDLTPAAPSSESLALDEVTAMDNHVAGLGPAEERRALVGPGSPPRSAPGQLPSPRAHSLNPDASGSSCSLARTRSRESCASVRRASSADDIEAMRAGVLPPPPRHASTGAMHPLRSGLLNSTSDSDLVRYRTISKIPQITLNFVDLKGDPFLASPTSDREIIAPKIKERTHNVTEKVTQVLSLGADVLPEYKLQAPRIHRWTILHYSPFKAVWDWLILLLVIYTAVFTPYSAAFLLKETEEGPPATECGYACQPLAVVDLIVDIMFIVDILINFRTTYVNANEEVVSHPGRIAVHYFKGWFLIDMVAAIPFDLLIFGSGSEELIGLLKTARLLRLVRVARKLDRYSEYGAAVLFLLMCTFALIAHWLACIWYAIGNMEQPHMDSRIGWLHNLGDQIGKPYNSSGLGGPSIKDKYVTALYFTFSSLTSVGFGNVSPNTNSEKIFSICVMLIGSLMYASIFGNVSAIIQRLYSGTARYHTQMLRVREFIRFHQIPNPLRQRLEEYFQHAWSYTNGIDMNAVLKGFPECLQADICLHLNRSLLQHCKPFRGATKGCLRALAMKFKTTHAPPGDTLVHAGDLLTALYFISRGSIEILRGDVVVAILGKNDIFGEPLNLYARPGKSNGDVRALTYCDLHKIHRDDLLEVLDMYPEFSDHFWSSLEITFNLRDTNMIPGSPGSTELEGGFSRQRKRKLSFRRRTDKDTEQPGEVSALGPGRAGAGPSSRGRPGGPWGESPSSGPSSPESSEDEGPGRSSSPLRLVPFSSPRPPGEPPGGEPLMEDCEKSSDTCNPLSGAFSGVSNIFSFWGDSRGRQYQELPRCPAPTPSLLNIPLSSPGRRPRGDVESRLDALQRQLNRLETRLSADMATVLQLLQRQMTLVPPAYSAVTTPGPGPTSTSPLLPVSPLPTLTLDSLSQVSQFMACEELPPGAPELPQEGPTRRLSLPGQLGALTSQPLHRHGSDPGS

For `CCn1c(=O)[nH]c(=O)c2c1nc(Cc1cn3cc(C)sc3n1)n2CC1COC1`, the concentration at 2 h [1] was 1370 ng/mL, the MRT last at 24 h [2] was 2.63 h and the “%AUCextra” value [3] was 0.552%. The Activity [4] was 70%, the fraction unbound [5] was 0.49 and the “inhibition (INH)” value (Cytochrome P450 3A4) was “Not Active”. For the same molecule, the AUMC [6] was 13.6%, the Activity [7] was “Non-Toxic” and the half-life [8] was > 2.42 h. It also gave an IC50 [9] of 0.077 µM, a Vd [10] of 1.4 L/kg and a concentration at 2 h [11] of 168 ng/g. For the same molecule, the concentration at 0.5 h [12] was 1420 ng/mL, the half-life [13] was 4.48 h and the MRT inf [14] was 0.7 h. For the same molecule, the IC50 [15] was > 30 µM, the Tmax [16] was 0.333 h and the clearance [17] was 33.2 mL/min/kg. The Activity (Mus musculus) was “inactive”, the concentration at 2 h [18] was 196 ng/mL and the Activity [19] was “Non-Toxic”. For the same molecule, the AUC(0-inf) [20] was 3320 ng·h/mL, the Cmax [21] was 6950 ng/mL and the AUMC [22] was 4.6%. For the same molecule, the IC50 [23] was > 100 µM, the C0 at 24 h [24] was 16300 ng/mL and the concentration at 2 h [25] was 391 ng/g. For the same molecule, the CLint scaled [26] was < 8.6 mL/min/kg and the Activity [27] was “Non-Toxic”.
